From PubChem BioAssay (NCI)
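Here, GI50 denotes the concentration required for 50% inhibition of growth. The concentration for full growth arrest is given as TGI.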

Tests used:
Test in all cases: growth of human tumour cells (NCI), 384-well format
[1] = test system: 786-0 renal
[2] = test system: A498 renal
[3] = test system: A549 NSCLC
[4] = test system: ACHN renal
[5] = test system: BT-549 breast
[6] = test system: CAKI-1 renal
[7] = test system: CCRF-CEM leukemia
[8] = test system: COLO 205 colon
[9] = test system: DU-145 prostate
[10] = test system: HCC-2998 colon
[11] = test system: HCT-116 colon
[12] = test system: HCT-15 colon
[13] = test system: HL-60(TB) leukemia
[14] = test system: HOP-62 NSCLC
[15] = test system: HOP-92 NSCLC
[16] = test system: HT29 colon
[17] = test system: IGROV1 ovarian
[18] = test system: K-562 leukemia
[19] = test system: KM12 colon
[20] = test system: LOX IMVI melanoma
[21] = test system: M14 melanoma
[22] = test system: MALME-3M melanoma
[23] = test system: MCF7 breast
[24] = test system: MDA-MB-231 breast
[25] = test system: MDA-MB-435 melanoma
[26] = test system: MDA-MB-468 breast
[27] = test system: MOLT-4 leukemia
[28] = test system: NCI-H226 lung
[29] = test system: NCI-H23 lung
[30] = test system: NCI-H322M lung
[31] = test system: NCI-H460 NSCLC
[32] = test system: NCI-H522 lung
[33] = test system: NCI/ADR-RES ovarian
[34] = test system: OVCAR-3 ovarian
[35] = test system: OVCAR-4 ovarian
[36] = test system: OVCAR-5 ovarian
[37] = test system: OVCAR-8 ovarian
[38] = test system: PC-3 prostate
[39] = test system: RPMI-8226 leukemia
[40] = test system: RXF 393 renal
[41] = test system: SF-268 CNS
[42] = test system: SF-295 CNS
[43] = test system: SF-539 CNS
[44] = test system: SK-MEL-2 melanoma
[45] = test system: SK-MEL-28 melanoma
[46] = test system: SK-MEL-5 melanoma
[47] = test system: SK-OV-3 ovarian
[48] = test system: SN12C renal
[49] = test system: SNB-19 CNS
[50] = test system: SR leukemia
[51] = test system: SW-620 colon
[52] = test system: T-47D breast
[53] = test system: TK-10 renal
[54] = test system: U251 glioblastoma
[55] = test system: UACC-257 melanoma
[56] = test system: UACC-62 melanoma
[57] = test system: UO-31 renal

## C[C@H](Nc1cc(Cl)nc2c1cnn2[C@@H]1O[C@H](COP(=O)(O)CP(=O)(O)O)[C@@H](O)[C@H]1O)c1ccccc1F
[1]
  GI50: > 100 µM
  TGI: > 100 µM
[2]
  GI50: 62.1 µM
  TGI: > 100 µM
[3]
  GI50: 80.5 µM
  TGI: > 100 µM
[4]
  GI50: > 100 µM
  TGI: > 100 µM
[5]
  GI50: 50.6 µM
  TGI: > 100 µM
[6]
  GI50: > 100 µM
  TGI: > 100 µM
[7]
  GI50: 42.4 µM
  TGI: > 100 µM
[8]
  GI50: > 100 µM
  TGI: > 100 µM
[9]
  GI50: > 100 µM
  TGI: > 100 µM
[10]
  GI50: 72.9 µM
  TGI: > 100 µM
[11]
  GI50: > 100 µM
  TGI: > 100 µM
[12]
  GI50: > 100 µM
  TGI: > 100 µM
[13]
  GI50: > 100 µM
  TGI: > 100 µM
[14]
  GI50: > 100 µM
  TGI: > 100 µM
[15]
  GI50: > 100 µM
  TGI: > 100 µM
[16]
  GI50: > 100 µM
  TGI: > 100 µM
[17]
  GI50: > 100 µM
  TGI: > 100 µM
[18]
  GI50: > 100 µM
  TGI: > 100 µM
[19]
  GI50: > 100 µM
  TGI: > 100 µM
[20]
  GI50: > 100 µM
  TGI: > 100 µM
[21]
  GI50: > 100 µM
  TGI: > 100 µM
[22]
  GI50: > 100 µM
  TGI: > 100 µM
[23]
  GI50: > 100 µM
  TGI: > 100 µM
[24]
  GI50: > 100 µM
  TGI: > 100 µM
[25]
  GI50: > 100 µM
  TGI: > 100 µM
[26]
  GI50: > 100 µM
  TGI: > 100 µM
[27]
  GI50: 58.8 µM
  TGI: > 100 µM
[28]
  GI50: 56.6 µM
  TGI: > 100 µM
[29]
  GI50: 67.3 µM
  TGI: > 100 µM
[30]
  GI50: > 100 µM
  TGI: > 100 µM
[31]
  GI50: > 100 µM
  TGI: > 100 µM
[32]
  GI50: > 100 µM
  TGI: > 100 µM
[33]
  GI50: > 100 µM
  TGI: > 100 µM
[34]
  GI50: > 100 µM
  TGI: > 100 µM
[35]
  GI50: 50.6 µM
  TGI: > 100 µM
[36]
  GI50: > 100 µM
  TGI: > 100 µM
[37]
  GI50: > 100 µM
  TGI: > 100 µM
[38]
  GI50: > 100 µM
  TGI: > 100 µM
[39]
  GI50: 8.19 µM
  TGI: 40.9 µM
[40]
  GI50: 28.5 µM
  TGI: > 100 µM
[41]
  GI50: > 100 µM
  TGI: > 100 µM
[42]
  GI50: > 100 µM
  TGI: > 100 µM
[43]
  GI50: 49.9 µM
  TGI: > 100 µM
[44]
  GI50: 99.6 µM
  TGI: > 100 µM
[45]
  GI50: > 100 µM
  TGI: > 100 µM
[46]
  GI50: > 100 µM
  TGI: > 100 µM
[47]
  GI50: 73.8 µM
  TGI: > 100 µM
[48]
  GI50: 70.8 µM
  TGI: > 100 µM
[49]
  GI50: > 100 µM
  TGI: > 100 µM
[50]
  GI50: 47.9 µM
  TGI: > 100 µM
[51]
  GI50: > 100 µM
  TGI: > 100 µM
[52]
  GI50: 80.7 µM
  TGI: > 100 µM
[53]
  GI50: > 100 µM
  TGI: > 100 µM
[54]
  GI50: > 100 µM
  TGI: > 100 µM
[55]
  GI50: > 100 µM
  TGI: > 100 µM
[56]
  GI50: > 100 µM
  TGI: > 100 µM
[57]
  GI50: > 100 µM
  TGI: > 100 µM
